Measurements published in ChEMBL document CHEMBL1201862, “PubChem BioAssay data set” (2004).
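1) Cells in 96-well plates. 2) Compound, 48 h, 5 concentrations. 3) Linear interpolation between surrounding doses. 4) Unreached endpoint = highest concentration. GI50 is the concentration that inhibits growth by half.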 The source made the active and inactive calls. No stated cut-off is given here; in the data, active = GI50 up to about 1.1 µM and inactive = higher.

How the values were obtained:
Test in all cases: growth of human tumour cells (NCI), 48 h
TK-10 = test system: TK-10
MDA-MB-435 = test system: MDA-MB-435
SK-OV-3 = test system: SK-OV-3
K562 = test system: K562
SN12C = test system: SN12C
NCI-H460 = test system: NCI-H460
SK-MEL-28 = test system: SK-MEL-28
786-0 = test system: 786-0
A549 = test system: A549
LOX IMVI = test system: LOX IMVI
DU-145 = test system: DU-145
SNB-19 = test system: SNB-19
UO-31 = test system: UO-31
Hs-578T = test system: Hs-578T
U-251 = test system: U-251
COLO 205 = test system: COLO 205
HCC 2998 = test system: HCC 2998
HCT-116 = test system: HCT-116
OVCAR-4 = test system: OVCAR-4
KM12 = test system: KM12

| Structure (SMILES) | GI50 (TK-10) | GI50 (MDA-MB-435) | GI50 (SK-OV-3) | GI50 (K562) | GI50 (SN12C) | GI50 (NCI-H460) | GI50 (SK-MEL-28) | GI50 (786-0) | GI50 (A549) | GI50 (LOX IMVI) | GI50 (DU-145) | GI50 (SNB-19) | GI50 (UO-31) | GI50 (Hs-578T) | GI50 (U-251) | GI50 (COLO 205) | GI50 (HCC 2998) | GI50 (HCT-116) | GI50 (OVCAR-4) | GI50 (KM12) |
| --- | --- | --- | --- | --- | --- | --- | --- | --- | --- | --- | --- | --- | --- | --- | --- | --- | --- | --- | --- | --- |
| CC(=O)Nc1ccc(S(=O)(=O)N=S(C)C)cc1 | > 100 µM (inactive) | > 100 µM (inactive) | > 100 µM (inactive) | > 100 µM (inactive) | > 100 µM (inactive) | > 100 µM (inactive) | > 100 µM (inactive) | > 100 µM (inactive) | > 100 µM (inactive) | > 100 µM (inactive) | > 100 µM (inactive) | > 100 µM (inactive) | > 100 µM (inactive) | > 100 µM (inactive) | > 100 µM (inactive) | > 100 µM (inactive) | > 100 µM (inactive) | > 100 µM (inactive) | > 100 µM (inactive) | > 100 µM (inactive) |
| O=C(O)C(Cc1cccs1)C(=O)O | > 100 µM (inactive) | > 100 µM (inactive) | > 100 µM (inactive) | > 100 µM (inactive) | > 100 µM (inactive) | > 100 µM (inactive) | > 100 µM (inactive) | > 100 µM (inactive) | > 100 µM (inactive) | > 100 µM (inactive) | > 100 µM (inactive) | > 100 µM (inactive) | > 100 µM (inactive) | > 100 µM (inactive) | > 100 µM (inactive) | > 100 µM (inactive) | > 100 µM (inactive) | > 100 µM (inactive) | > 100 µM (inactive) | > 100 µM (inactive) |
| ON(CCc1ccccn1)Cc1ccccc1 | > 100 µM (inactive) | > 100 µM (inactive) | > 100 µM (inactive) | 31.7 µM (inactive) | > 100 µM (inactive) | > 100 µM (inactive) | > 100 µM (inactive) | > 100 µM (inactive) | > 100 µM (inactive) | > 100 µM (inactive) | > 100 µM (inactive) | > 100 µM (inactive) | > 100 µM (inactive) | > 100 µM (inactive) | > 100 µM (inactive) | > 100 µM (inactive) | > 100 µM (inactive) | > 100 µM (inactive) | > 100 µM (inactive) | > 100 µM (inactive) |
| O=C(O)c1cccc(C(=O)O)c1[S+]([O-])Cc1ccccc1 (stereo not given) | > 100 µM (inactive) | > 100 µM (inactive) | > 100 µM (inactive) | > 100 µM (inactive) | > 100 µM (inactive) | > 100 µM (inactive) | > 100 µM (inactive) | > 100 µM (inactive) | > 100 µM (inactive) | > 100 µM (inactive) | > 100 µM (inactive) | > 100 µM (inactive) | > 100 µM (inactive) | > 100 µM (inactive) | > 100 µM (inactive) | > 100 µM (inactive) | > 100 µM (inactive) | > 100 µM (inactive) | > 100 µM (inactive) | > 100 µM (inactive) |
| CC(ON1[C@](C)(c2ccccc2)CC[C@@]1(C)c1ccccc1)c1ccccc1 (stereo not given in full) | > 100 µM (inactive) | 44.4 µM (inactive) | > 100 µM (inactive) | 33 µM (inactive) | 45.6 µM (inactive) | 36.2 µM (inactive) | 53.2 µM (inactive) | 52.4 µM (inactive) | 30.9 µM (inactive) | 31.2 µM (inactive) | 34.8 µM (inactive) | 25.5 µM (inactive) | 37.9 µM (inactive) | 37.3 µM (inactive) | 31 µM (inactive) | 43.4 µM (inactive) | 20.9 µM (inactive) | 25.4 µM (inactive) | 68.4 µM (inactive) | 29.4 µM (inactive) |
| Cc1ccc(N2CN3OC(=O)N(c4ccccc4)[C@@]3(c3ccccc3)C2)cc1 | 50.5 µM (inactive) | 26.4 µM (inactive) | 40.6 µM (inactive) | 22.3 µM (inactive) | 42.2 µM (inactive) | 21.6 µM (inactive) | > 100 µM (inactive) | 44.5 µM (inactive) | 36.5 µM (inactive) | 37.5 µM (inactive) | 48.4 µM (inactive) | 92 µM (inactive) | 57.4 µM (inactive) | 87.9 µM (inactive) | 30.5 µM (inactive) | 36.1 µM (inactive) | 24.9 µM (inactive) | 29.2 µM (inactive) | 34.2 µM (inactive) | 33.9 µM (inactive) |
| CC1=C(C(=O)NC2CCCCC2)CC(C(=O)NC2CCCCC2)=C(C)N1 | 39.2 µM (inactive) | > 100 µM (inactive) | > 100 µM (inactive) | 57.4 µM (inactive) | > 100 µM (inactive) | > 100 µM (inactive) | > 100 µM (inactive) | > 100 µM (inactive) | > 100 µM (inactive) | > 100 µM (inactive) | > 100 µM (inactive) | > 100 µM (inactive) | > 100 µM (inactive) | 24.9 µM (inactive) | > 100 µM (inactive) | > 100 µM (inactive) | > 100 µM (inactive) | > 100 µM (inactive) | > 100 µM (inactive) | > 100 µM (inactive) |
| O=C(CCCl)NN=C1NCCCN1 | > 100 µM (inactive) | > 100 µM (inactive) | > 100 µM (inactive) | > 100 µM (inactive) | > 100 µM (inactive) | > 100 µM (inactive) | > 100 µM (inactive) | > 100 µM (inactive) | > 100 µM (inactive) | > 100 µM (inactive) | > 100 µM (inactive) | > 100 µM (inactive) | > 100 µM (inactive) | > 100 µM (inactive) | > 100 µM (inactive) | > 100 µM (inactive) | > 100 µM (inactive) | > 100 µM (inactive) | > 100 µM (inactive) | > 100 µM (inactive) |
| N#CC(C#N)=C1C(C#N)=C(N)NC12OCCO2 | > 100 µM (inactive) | > 100 µM (inactive) | > 100 µM (inactive) | > 100 µM (inactive) | > 100 µM (inactive) | > 100 µM (inactive) | > 100 µM (inactive) | > 100 µM (inactive) | > 100 µM (inactive) | > 100 µM (inactive) | > 100 µM (inactive) | > 100 µM (inactive) | > 100 µM (inactive) | > 100 µM (inactive) | > 100 µM (inactive) | > 100 µM (inactive) | > 100 µM (inactive) | > 100 µM (inactive) | > 100 µM (inactive) | > 100 µM (inactive) |
| COC(=O)CCc1cc(O)c2c(c1)C(C(=O)OC)C(c1ccc(O)c(O)c1)O2 (stereo not given) | 53.1 µM (inactive) | 1.48 µM (inactive) | 33.6 µM (inactive) | 2.61 µM (inactive) | 21.9 µM (inactive) | 22.9 µM (inactive) | 8.93 µM (inactive) | 26.1 µM (inactive) | 43.4 µM (inactive) | 8.04 µM (inactive) | > 41.9 µM (inactive) | 11.1 µM (inactive) | 26.2 µM (inactive) | 25.2 µM (inactive) | 11.8 µM (inactive) | 31.4 µM (inactive) | 5.02 µM (inactive) | 7.19 µM (inactive) | > 58.7 µM (inactive) | 3.88 µM (inactive) |
| COC(=O)[C@]12CC[C@H]3CN(C(=O)OCc4ccccc4)[C@H]([C@H]31)[C@H](c1ccccc1)N2 | > 100 µM (inactive) | 52 µM (inactive) | > 100 µM (inactive) | 58.1 µM (inactive) | > 100 µM (inactive) | > 100 µM (inactive) | > 100 µM (inactive) | > 100 µM (inactive) | 54.7 µM (inactive) | > 100 µM (inactive) | > 100 µM (inactive) | > 100 µM (inactive) | 67.3 µM (inactive) | > 100 µM (inactive) | > 100 µM (inactive) | 92.9 µM (inactive) | > 100 µM (inactive) | 65.3 µM (inactive) | 64.7 µM (inactive) | 72.6 µM (inactive) |
| CC(C)=CCC/C(C)=C/CC/C(C)=C/CC(CO)N(C)CC/C=C(\C)CCC=C(C)C (stereo not given) | 9.53 µM (inactive) | 3.93 µM (inactive) | 14.9 µM (inactive) | 1.6 µM (inactive) | 4.54 µM (inactive) | 3.48 µM (inactive) | 5.87 µM (inactive) | 1.91 µM (inactive) | 4.93 µM (inactive) | 2.92 µM (inactive) | 11.5 µM (inactive) | 8.91 µM (inactive) | 4.65 µM (inactive) | 5.31 µM (inactive) | 3.56 µM (inactive) | 2.42 µM (inactive) | 3.04 µM (inactive) | 2.15 µM (inactive) | 8.97 µM (inactive) | 3.94 µM (inactive) |
| CC(C)C1=CC2=C(C(=O)C1=O)C13CCCC(C)(C)C1CC2OC3=O (stereo not given) | 14.8 µM (inactive) | 20.8 µM (inactive) | 59.3 µM (inactive) | 3.64 µM (inactive) | 21.4 µM (inactive) | 26.2 µM (inactive) | 14.1 µM (inactive) | 17.9 µM (inactive) | 43.5 µM (inactive) | 20.1 µM (inactive) | 18.8 µM (inactive) | 42.9 µM (inactive) | 19.4 µM (inactive) | 34.4 µM (inactive) | 23 µM (inactive) | 17.2 µM (inactive) | 21.3 µM (inactive) | 18.3 µM (inactive) | 18.6 µM (inactive) | 31.8 µM (inactive) |
| NC(=O)c1[nH]nc(C2OC(CO)C(O)C2O)c1O (stereo not given) | 91.6 µM (inactive) | 15.7 µM (inactive) | 84.3 µM (inactive) | 0.5 µM (active) | 3.18 µM (inactive) | 0.573 µM (active) | 328 µM (inactive) | 0.5 µM (active) | 0.6 µM (active) | 0.504 µM (active) | 0.5 µM (active) | 2.6 µM (inactive) | 4.01 µM (inactive) | 94 µM (inactive) | 1.38 µM (inactive) | 16 µM (inactive) | 42.5 µM (inactive) | 0.548 µM (active) | 24.7 µM (inactive) | 10.4 µM (inactive) |
